Our source for the mutagenic call values is PubChem BioAssay AID1259407 (Chemical Carcinogenesis Research Information System (CCRIS), 2018).

Activity calls are given as the source filed them. No rule for the calls is given here.

The subject of the data set is CCRIS mutagenicity, Ames/micronucleus/aberration tests. Put plainly: CCRIS mutagenicity studies. To be noted: Test System: AMES SALMONELLA TYPHIMURIUM
Setting [1] is: Strain/Indicator: TA97, Metabolic Activation: NONE, Method: PREINCUBATION
Setting [2] is: Strain/Indicator: TA98, Metabolic Activation: NONE, Method: PREINCUBATION
The mark [3] stands for this setting: Strain/Indicator: TA100, Metabolic Activation: NONE, Method: PREINCUBATION
The mark [4] stands for this setting: Strain/Indicator: TA1535, Metabolic Activation: NONE, Method: PREINCUBATION
[5] abbreviates: Strain/Indicator: TA98, Metabolic Activation: NONE, Method: STANDARD PLATE.
Where [6] appears, read: Strain/Indicator: TA100, Metabolic Activation: NONE, Method: STANDARD PLATE.
The mark [7] stands for this setting: Strain/Indicator: TA1537, Metabolic Activation: NONE, Method: STANDARD PLATE.

As to `CC(=O)Nc1cccc(C)c1`, the mutagenic call by setting is: (Strain/Indicator: TA97, Metabolic Activation: HAMSTER, LIVER, S-9, AROCLOR 1254 (10 OR 30%), Method: PREINCUBATION) “inactive; negative”; under setting [1], “inactive; negative”; (Strain/Indicator: TA97, Metabolic Activation: RAT, LIVER, S-9, AROCLOR 1254 (10 OR 30%), Method: PREINCUBATION) “inactive; negative”; (Strain/Indicator: TA98, Metabolic Activation: HAMSTER, LIVER, S-9, AROCLOR 1254 (10 OR 30%), Method: PREINCUBATION) “inactive; negative”; under setting [2], “inactive; negative”; (Strain/Indicator: TA98, Metabolic Activation: RAT, LIVER, S-9, AROCLOR 1254 (10 OR 30%), Method: PREINCUBATION) “inactive; negative”. For the same molecule, the mutagenic call (Strain/Indicator: TA100, Metabolic Activation: HAMSTER, LIVER, S-9, AROCLOR 1254 (10 OR 30%), Method: PREINCUBATION) is “inactive; negative”; the mutagenic call under setting [3] is “inactive; negative”; the mutagenic call (Strain/Indicator: TA100, Metabolic Activation: RAT, LIVER, S-9, AROCLOR 1254 (10 OR 30%), Method: PREINCUBATION) is “inactive; negative”; the mutagenic call (Strain/Indicator: TA1535, Metabolic Activation: HAMSTER, LIVER, S-9, AROCLOR 1254 (10 OR 30%), Method: PREINCUBATION) was “inactive; negative”; the mutagenic call under setting [4] was “inactive; negative”; the mutagenic call (Strain/Indicator: TA1535, Metabolic Activation: RAT, LIVER, S-9, AROCLOR 1254 (10 OR 30%), Method: PREINCUBATION) is “inactive; negative”.
Consider `C[C@H](CCC(=O)O)[C@H]1CC[C@H]2[C@@H]3CC[C@@H]4CC(=O)CC[C@]4(C)[C@H]3C[C@H](O)[C@]12C`, for which the mutagenic call is, setting by setting: (Strain/Indicator: TA98, Metabolic Activation: NONE, Method: FLUCTUATION TEST) “inactive; negative”; under setting [2], “inactive; negative”; (Strain/Indicator: TA98, Metabolic Activation: RAT, LIVER, S-9, PCB, Method: PREINCUBATION) “inactive; negative”; (Strain/Indicator: TA100, Metabolic Activation: NONE, Method: FLUCTUATION TEST) “inactive; negative”.
On to `CNc1ncn(C)c1C(=O)N(C)N=O`, for which the mutagenic call by setting is: under setting [5], “inactive; negative”; (Strain/Indicator: TA98, Metabolic Activation: S-9, Method: STANDARD PLATE) “inactive; negative”; under setting [6], “inactive; negative”; (Strain/Indicator: TA100, Metabolic Activation: S-9, Method: STANDARD PLATE) “active; positive”; (Strain/Indicator: TA102, Metabolic Activation: NONE, Method: STANDARD PLATE) “active; positive”; (Strain/Indicator: TA102, Metabolic Activation: S-9, Method: STANDARD PLATE) “active; positive”. In addition, the mutagenic call was “active; positive” (Strain/Indicator: TA1535, Metabolic Activation: S-9, Method: STANDARD PLATE); “inactive; negative” under setting [7]; “inactive; negative” (Strain/Indicator: TA1537, Metabolic Activation: S-9, Method: STANDARD PLATE).
On to `CCN(C(=O)N(CC)c1ccccc1)c1ccccc1`, for which the mutagenic call is “inactive; negative” (Strain/Indicator: TA97, Metabolic Activation: HAMSTER, LIVER, S-9, AROCLOR 1254 (10%), Method: PREINCUBATION); “inactive; negative” (Strain/Indicator: TA97, Metabolic Activation: HAMSTER, LIVER, S-9, AROCLOR 1254 (30%), Method: PREINCUBATION); “inactive; negative” under setting [1]; “inactive; negative” (Strain/Indicator: TA97, Metabolic Activation: RAT, LIVER, S-9, AROCLOR 1254 (10%), Method: PREINCUBATION); “inactive; negative” (Strain/Indicator: TA97, Metabolic Activation: RAT, LIVER, S-9, AROCLOR 1254 (30%), Method: PREINCUBATION); “inactive; negative” (Strain/Indicator: TA98, Metabolic Activation: HAMSTER, LIVER, S-9, AROCLOR 1254 (10%), Method: PREINCUBATION). Further, the mutagenic call by setting is: (Strain/Indicator: TA98, Metabolic Activation: HAMSTER, LIVER, S-9, AROCLOR 1254 (30%), Method: PREINCUBATION) “inactive; negative”; under setting [2], “inactive; negative”; (Strain/Indicator: TA98, Metabolic Activation: RAT, LIVER, S-9, AROCLOR 1254 (10%), Method: PREINCUBATION) “inactive; negative”; (Strain/Indicator: TA98, Metabolic Activation: RAT, LIVER, S-9, AROCLOR 1254 (30%), Method: PREINCUBATION) “inactive; negative”; (Strain/Indicator: TA100, Metabolic Activation: HAMSTER, LIVER, S-9, AROCLOR 1254 (10%), Method: PREINCUBATION) “inactive; negative”; (Strain/Indicator: TA100, Metabolic Activation: HAMSTER, LIVER, S-9, AROCLOR 1254 (30%), Method: PREINCUBATION) “inactive; negative”. Besides, the mutagenic call is “inactive; negative” under setting [3]; “inactive; negative” (Strain/Indicator: TA100, Metabolic Activation: RAT, LIVER, S-9, AROCLOR 1254 (10%), Method: PREINCUBATION); “inactive; negative” (Strain/Indicator: TA100, Metabolic Activation: RAT, LIVER, S-9, AROCLOR 1254 (30%), Method: PREINCUBATION); “inactive; negative” (Strain/Indicator: TA1535, Metabolic Activation: HAMSTER, LIVER, S-9, AROCLOR 1254 (10%), Method: PREINCUBATION); “inactive; negative” (Strain/Indicator: TA1535, Metabolic Activation: HAMSTER, LIVER, S-9, AROCLOR 1254 (30%), Method: PREINCUBATION); “inactive; negative” under setting [4]. Moreover, the mutagenic call is “inactive; negative” (Strain/Indicator: TA1535, Metabolic Activation: RAT, LIVER, S-9, AROCLOR 1254 (10%), Method: PREINCUBATION) and “inactive; negative” (Strain/Indicator: TA1535, Metabolic Activation: RAT, LIVER, S-9, AROCLOR 1254 (30%), Method: PREINCUBATION).
As for `CN1CCN(C2=Nc3ccccc3Oc3ccc(Cl)cc32)CC1`, the mutagenic call reads like this: under setting [5], “inactive; negative”; (Strain/Indicator: TA98, Metabolic Activation: RAT, LIVER, S-9, AROCLOR 1254, Method: STANDARD PLATE) “inactive; negative”; under setting [6], “inactive; negative”; (Strain/Indicator: TA100, Metabolic Activation: RAT, LIVER, S-9, AROCLOR 1254, Method: STANDARD PLATE) “inactive; negative”; (Strain/Indicator: TA1535, Metabolic Activation: NONE, Method: STANDARD PLATE) “inactive; negative”; (Strain/Indicator: TA1535, Metabolic Activation: RAT, LIVER, S-9, AROCLOR 1254, Method: STANDARD PLATE) “inactive; negative”. The mutagenic call is, setting by setting: under setting [7], “inactive; negative”; (Strain/Indicator: TA1537, Metabolic Activation: RAT, LIVER, S-9, AROCLOR 1254, Method: STANDARD PLATE) “inactive; negative”.
